# Target: T1, PKCζ (protein kinase C ζ) (Homo sapiens, UniProt Q05513)
# T1 construct: gene PRKCZ
# T1 sequence (Q05513 1-592): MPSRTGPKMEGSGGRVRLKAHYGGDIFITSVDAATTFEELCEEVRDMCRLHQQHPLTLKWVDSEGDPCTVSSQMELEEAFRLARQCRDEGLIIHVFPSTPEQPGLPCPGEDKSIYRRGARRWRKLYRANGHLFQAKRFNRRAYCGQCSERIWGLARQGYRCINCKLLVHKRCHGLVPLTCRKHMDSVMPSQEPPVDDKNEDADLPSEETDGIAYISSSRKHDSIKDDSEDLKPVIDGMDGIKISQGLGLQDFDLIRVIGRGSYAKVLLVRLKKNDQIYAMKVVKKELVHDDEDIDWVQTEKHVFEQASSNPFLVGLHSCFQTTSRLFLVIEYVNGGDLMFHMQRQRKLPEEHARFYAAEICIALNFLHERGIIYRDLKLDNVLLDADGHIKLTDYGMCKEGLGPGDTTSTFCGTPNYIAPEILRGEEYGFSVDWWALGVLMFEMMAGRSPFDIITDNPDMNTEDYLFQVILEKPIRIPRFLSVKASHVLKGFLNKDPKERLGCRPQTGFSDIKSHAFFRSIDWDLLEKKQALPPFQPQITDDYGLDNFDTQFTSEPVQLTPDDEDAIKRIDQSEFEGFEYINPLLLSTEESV
# Assay: Z'-LYTE kinase assay (Ser/Thr […] peptide) with purchased PKCζ (Invitrogen Cat. No. […]), […] ATP
# Type: biochemical
structure (smiles),measurement,value
Cc1c(CSC(=N)N)c(C)c(CSC(=N)N)c(C)c1CSC(=N)N [J-4],IC50,~10 µM
